Where two headings read alike, the source gives them in different places.
How the values were obtained:
[1] = tested on: ERK; test: MAP kinase (ERK) activity in AR42J cells; type: cell-based, rat; conditions: PKI 300 μM
Method: MAP Kinase Activity. After treatment, 60 mm dishes of 80% confluent cells were lysed at 4° C. in lysis buffer (in mM): 50 TRIS-HCl, PH 8, 150 NaCl, 5 EDTA, 1% NP-40, 0.25% sodium deoxycholate, 1 NaF, 10 sodium pyrophosphate, 0.1 PMSF, 1 sodium orthovanadate, 20 μg/ml aprotinin, and 10 μg/ml leupeptin. The cell lysate was clarified by centrifugation at 16,000×g at 4° C. for 20 min. The clarified cell lysate was immunoprecipitated overnight at 4° C., rotating with 4.5 μg of ERK1-CT antibody and 40 μl of packed protein G+protein A agarose resin (Oncogene Research Product, Cambridge, Mass.). The immune pellet was assayed for MAPK activity using MBP as the substrate. MBP (18.6 μg) was phosphorylated at 20° C. for 10 min in a final volume of 60 μl containing 20 mM Hepes, PH 7.4, 10 mM MgCl2, 1 mM DTT, 20 uM unlabeled ATP and 40 μCi (3,000 Ci/mmol) [^32P]-ATP. The reaction was terminated by the addition of 25 μl of 3× Laemmli sample buffer and heating at 70° C. for 10 min. MAPK activity was assessed by SDS-PAGE and auto-radiography. The autoradiograms were quantified by densitometry.

[2] = tested on: AR42J cells; test: Immunoreactive insulin release from treated AR42J cells (RIA); type: cell-based, rat; conditions: 200 μM PKI or PD98059 (50 μM)
Method: Measurement of immunoreactive insulin. AR42J cells were cultured as before in 12-well cluster plates. When cells reached 60% confluence, they were treated with GLP-1 for 3 days. At the beginning of the experiments, an aliquot of the medium was taken in order to assay the insulin accumulation in the medium. Then the cells were twice washed with Kreb's Ringer Balanced Buffer (KRBB) and incubated in the same buffer containing 10 mM glucose for another 1 h. The medium was collected and kept at −20° C. until insulin levels were assayed by RIA (See Example 1; Wang et al., Endocrinology, 1995). The cells were washed with PBS and detached with 0.25% typsin and 0.02% EDTA. The cell pellet was collected and lysed with formic acid for protein determination by the Bradford method (Bradford, 1976), using bovine-globulin as standard.

[3] = tested on: AR42J cells; test: Immunocytochemistry of insulin- and glucagon-positive AR42J cells; type: cell-based, rat; conditions: PD98059 50 μM or PKI 300 μM added concurrently with GLP-1
Method: Cell culture. AR42J cells were maintained in Dulbecco's modified Eagle's medium (DMEM) supplemented with 10% fetal calf serum (FBS), 100 IU/ml penicillin, 100 μg/ml streptomycin and 2 mM glutamine. Cells from passage 23–35 were used throughout this study. Cells were routinely plated at a density of about 10^5 cells/ml in 12-well cluster dishes or on coverslips and incubated in a humidified incubator at 37° C. with 95% air and 5% CO2.
Immunocytochemistry analysis. Cells were cultured on glass coverslips, washed with phosphate buffered saline (PBS) to remove serum, and fixed with 0.5% glutaraldehyde in PBS. Cells were permeabilized with 0.2% Triton X-100 for 5 min and the rest of the procedure was carried out at room temperature in a humidified chamber. Suction was used to remove reagents between each step but drying of specimens was avoided. Sufficient reagent was used to cover each specimen (approximately 1 or 2 drops was usually adequate). The coverslips were incubated in 0.3% H2O2 in PBS for 30 min to quench endogenous peroxidase activity and washed in PBS×3 times, followed by incubation with 2% goat serum in PBS for 30 min to block non-specific binding of IgG. Excess serum was removed by blotting. The specific primary polyclonal antisera (anti-insulin 1:300; anti-glucagon 1:300) were used. Antibody was diluted in PBS containing 1% goat serum. This was applied to the coverslip and incubated at room temperature for 1 h. The coverslips were washed ×3 times in PBS, each time for 5 min, then incubated with biotinylated second antibody for 1 h and washed ×3 times with PBS. Avidin-biotin-peroxidase complex in PBS was applied for 30 min. Immunoperoxidase labeling was performed with a Vectostain ABC kit (Vector Labs, Burlingame, Calif.). After extensive washing in PBS for 4–5 times (each 5 min), the coverslips were incubated in diaminobenzidine tetrahydrochloride (DAB) in PBS, with 0.01% hydrogen peroxide for 3 min. The reaction was stopped by washing the coverslips in PBS and examined under a light microscope. To confirm specific staining, samples incubated with preabsorbed primary antibody were used as negative control, and the insulin producing cell line RIN 1046-38 cells were used as positive control for our experiments. The avidin-biotin-peroxidase (ABC) procedure was performed according to methods known in the art (Hsu et al., 1981).

[4] = tested on: AR42J cells; test: Protein tyrosine phosphorylation in AR42J cells; type: cell-based, rat; conditions: 5 min treatment
Method: Tyrosine Phosphorylation Studies. […] Then the medium was removed and fresh KRBB was added, followed by placing the cell on a 37° C. hot plate for 5 min. After addition of various reagents (see FIG. 24) for 5 min the reaction was terminated by submersion of the dishes in liquid nitrogen. The frozen cells were scraped and lysed in RIPA buffer. […] The blots were developed using the ECL chemiluminescence detection system (Amersham).

[5] = tested on: AR42J cells; test: Amylase release from AR42J cells; type: cell-based, rat; conditions: for effect on CCK-induced amylase release: combined with CCK (1 nM), genestein 300 μM
Method: Cell Culture. AR42J cells were maintained in Dulbecco's modified Eagle's medium (Gibco, Grand Island, N.Y.) (DMEM) supplemented with 10% Fetal Calf Serum, 100 IU/ml penicillin, 100 μg/ml streptomycin and 2 mM glutamine. Cells from passage 23–36 were used throughout this study.
Amylase Assay. For amylase secretion, cells were washed free of medium with 2 ml phosphate buffered saline (PBS). Incubation was then carried out in DMEM containing 15 mM HEPES, 0.2% bovine serum albumin (BSA) and 0.01% soybean trypsin inhibitor. The hormones and reagents of interest were added for 50 min at 37° C. The incubation medium was then immediately removed for amylase determination and the cells were again washed in 2 ml ice-cold PBS. […] The released amylase was expressed as the percentage of the total amylase activity of the cells.

[6] = tested on: AR42J cells; test: Intracellular cAMP in AR42J cells; type: cell-based, rat; conditions: for intracellular cAMP levels: 1 h, GLP-1 0.1 to 100 nM, IBMX 100 nM, CCK 0.1 to 100 nM, exendin-4 0.1 to 10 nM
Method: Measurement of cAMP. Cells were grown in 12-well dishes and treated with hormones and reagents±IBMX as described above. They were then washed 3 times in ice-cold PBS and lysed with 1 ml ice-cold […] perchloric acid. The lysates (950 μl) were transferred to microcentrifuge tubes and the pH adjusted to 7.0 using 5 M K2CO3. After centrifugation for 5 min at 10^4 rpm, the supernatant was vacuum dried, and then recovered in 200 μl Tris/EDTA buffer. After addition of 0.15 mM Na2CO3 (50 μl) and 0.15 mM ZnSO^4 (50 μl), followed by incubation for 15 min on ice, the salt precipitate was removed by centrifugation for 15 min at 3.5×10^3 rpm and 50 μl of supernatant was assayed using a cAMP [^3] assay kit (Amersham Corp., Arlington Heights, Ill.), (Steiner et al., 1972).

[7] = tested on: AR42J cells; test: Amylase content and CCK response of AR42J cells after 72 h treatment; type: cell-based, rat; conditions: dexamethasone 72 h
Method: Amylase Assay. For amylase determination, cells were washed free of medium with 2 ml PBS. Incubation was then carried out in DMEM containing 15 mM HEPES, 0.2% BSA and 0.01% soybean trypsin inhibitor. CCK (1 nM) was added for 50 min at 37° C. The incubation medium was then immediately removed for amylase determination and the cells were again washed in 2 ml ice-cold PBS. Lysate buffer containing (in mM) 130 Tris-HCl, 10 CaCl2, 75 NaCl, and 0.2% Triton X-100 (pH 8.0) was added to the cells and the lysates were then collected for total amylase (Ceska et al., 1969). The released amylase was expressed as the percentage of the total amylase in the cells.

[8] = tested on: rat acinar cells; conditions: CCK alone vs 10^−8 M exendin-4 and CCK together; Malhotra et al. 1992; cited from earlier work
[9] = tested on: AR42J cells; test: Intracellular calcium in single AR42J cells (indo-1); type: cell-based, rat; conditions: for AR42J cells showing [Ca2+]i response: CCK 1 nM
Method: Measurement of intracellular calcium, [Ca^2+]l. AR42J cells were loaded with the fluorescent Ca^2+ probe, indo-1 acetoxymethyl ester (indo-1/AM). […] Both loading with indo-1 and the experiments were carried out at room temperature (22–24° C.). […] The emission field was restricted to a single cell. Indo-1 was excited at 350±5 nm every 5 ms, and the fluorescence emission was split into wavelength bands of 410±5 and 490±5 nm. […] The cell autofluorescence was assessed in a large number of indo-1 non-loaded cells from the same batch. […] Routinely, the cells were exposed to the test solution for 240–300s. Thereafter, the test solution was washed out, while [Ca^2+]l was monitored for additional 120–180s. The test solutions were prepared just prior to the experiment by adding the hormones in standard bathing solution.

[10] = tested on: AR42J cells; test: 125I-GLP-1 binding to AR42J cells; design: species or system rat; dose or concentration left out as unconfirmed; conditions: displacement by cold GLP-1, n=9
Method: GLP-1 binding. AR42J cells were plated and cultured as described above. At the start of the binding experiment the cells were incubated with serum-free DMEM for 2 h at 37° C. Cells were then washed twice with 0.5 ml binding buffer containing (in mM) 120 NaCl, 1.2 MgSO4, 13 sodium acetate, 5 KCl, 10 Tris, pH 7.6. […] We only used freshly prepared ^125I-GLP-1 within two weeks of the reference date. At the end of the incubation, the supernatant was discarded and the cells were washed three times with ice-cold PBS. Cells were lysed with 0.5 ml 0.5 N NaOH/0.1% SDS for 30 min at room temperature. The radioactivity was measured in the lysates in an ICN Apec series gamma counter. […] This method has been used previously to characterize GLP-1 binding in CHO cells overexpressing GLP-1 receptor and in 3T3-L1 adipocytes (Montrose-Rafizadeh et al., J. Biol. Chem., 1997; Montrose-Rafizadeh et al., J Cell Physiol., 1997).

[11] = 50 min, glucagon 10 or 100 nM, GLP-1 10 nM, insulin 100 nM, 8-Br-cAMP 100 nM, vanadate 1 mM

Compound: CCCCCCCCCCCCCCCCOCC(CO)OC (racemic) [PKI, 1-o-Hexadecyl-2-o-methyl-rac-glycerol, reference compound]
- MAPK activity with inhibitor alone [1]: decreased MAPK activity to less than that of control cells
- insulin secretion of GLP-1-treated cells in presence of inhibitor [2]: barely detected
- effect on GLP-1-induced conversion of AR42J cells [3]: conversion of the cells did not occur

Compound: O=c1c(-c2ccc(O)cc2)coc2cc(O)cc(O)c12 [Genestein]
- effect on protein tyrosine phosphorylation [4]: decreased tyrosine phosphorylations induced by CCK
- effect on CCK-induced amylase release ([5]; vanadate 1 mM): decreased

Compound: CC(C)Cn1c(=O)n(C)c(=O)c2[nH]cnc21 [IBMX]
- intracellular cAMP levels [6]: not altered

Compound: [F-].[Na+] [NaF, sodium fluoride]
- effect on protein tyrosine phosphorylation [4]: increased
- effect on amylase release when given alone [5, 11]: did like-wise

Compound: COc1cccc(-c2cc(=O)c3ccccc3o2)c1N [PD98059, reference compound]
- insulin secretion of GLP-1-treated cells in presence of inhibitor [2]: barely detected
- effect on GLP-1-induced conversion of AR42J cells [3]: conversion of the cells did not occur

Compound: C[C@@H]1C[C@H]2[C@@H]3CCC4=CC(=O)C=C[C@]4(C)[C@@]3(F)[C@@H](O)C[C@]2(C)[C@@]1(O)C(=O)CO [dexamethasone, reference compound]
- increase in amylase content vs non-dexamethasone-treated cells [7]: 6.6 fold
- amylase content of cells ([7]; non-treated cells 1.88 U/l): 12.57 U/l

Compound: [O]=[V]([O-])([O-])[O-] [vanadate]
- effect on amylase release when given alone [5]: increased significantly
- effect on CCK-induced amylase release ([5]; vanadate 1 mM): increased significantly

Compound: CCK: Cholecytokinin, stimulus of amylase release, from Sigma
- intracellular cAMP levels [6]: not altered
- total amylase released [8]: 12%
- increase in tyrosine phosphorylation levels of 46, 66, 120 and 190 kDa proteins [4]: ≥ 2 fold
- peak [Ca2+]i amplitude, increase over resting indo-1 fluorescence ratio (IFR) ([9]; single cells): 2.5–3.5 fold
- AR42J cells showing [Ca2+]i response ([9]; single cells, glucagon 10 nM): 85%
- concentration of maximum stimulation of amylase release ([5]; 50 min, dexamethasone-induced AR42J cells): 10 nM
- effect on amylase release when given alone [5, 11]: potent stimulus of amylase release

Compound: ^125I-GLP-1: radiolabelled GLP-1 (2,000 Ci/mmol, Peninsula)
- specific 125I-GLP-1 binding, % of total binding [10]: 27±3.2%
- specific 125I-GLP-1 binding, % of total radioactivity added [10]: 0.64±0.16%

Compound: glucagon: islet hormone, from Bachem
- increase in cAMP levels ([6]; glucagon 10 nM, presence and absence of CCK): 2 fold
- peak [Ca2+]i transient as percent of resting IFR level ([9]; glucagon 10 nM): 200–250%
- effect on time course of CCK-induced [Ca2+]i transients ([9]; glucagon 10 nM, 8-bromo-cAMP 0.1 μM for 60–300 sec): attenuated rate of rise and a very slow rate of relaxation
- AR42J cells showing [Ca2+]i response ([9]; single cells, glucagon 10 nM): 70%
- effect on amylase release when given alone [5, 11]: no effect
- effect on CCK-induced amylase release ([5]; vanadate 1 mM): inhibited, but did not fully abolish

Compound: insulin: islet hormone, from Sigma
- effect on protein tyrosine phosphorylation [4]: increased phosphorylation of 97 kDa band
- effect on amylase release when given alone [5, 11]: did not influence amylase release
- effect on CCK-induced amylase release ([5]; vanadate 1 mM): did not influence amylase release
- basal or CCK (1 nM)-induced amylase release after pre-incubation ([5]; pre-incubation 8, 24, 48 or 72 h with GLP-1 (10 nM) and insulin (100 nM)): did not increase
